Our source for the Kd values is paper PMC11767950, “Human Serum Albumin and Human Serum Albumin Nanoparticles as Carriers of 10-(2′-Pyrimidyl)-3,6-diazaphenothiazine: In Vitro Spectroscopic Studies” (Molecules, 2025).

This assay concerns the target T1, Human serum albumin (HSA) (Homo sapiens, UniProt P02768).
T1 construct: gene ALB
Nature of the assay: intrinsic fluorescence quenching (Stern-Volmer, Klotz Ka), dansyl amino acid marker displacement, far UV-CD. Type of assay: binding. Conditions: read-out: λex 275 nm / Ka [mol^-1.L] ± SD ^1.

pKd: −log10 of the molar value.

T1 sequence (P02768 25-609): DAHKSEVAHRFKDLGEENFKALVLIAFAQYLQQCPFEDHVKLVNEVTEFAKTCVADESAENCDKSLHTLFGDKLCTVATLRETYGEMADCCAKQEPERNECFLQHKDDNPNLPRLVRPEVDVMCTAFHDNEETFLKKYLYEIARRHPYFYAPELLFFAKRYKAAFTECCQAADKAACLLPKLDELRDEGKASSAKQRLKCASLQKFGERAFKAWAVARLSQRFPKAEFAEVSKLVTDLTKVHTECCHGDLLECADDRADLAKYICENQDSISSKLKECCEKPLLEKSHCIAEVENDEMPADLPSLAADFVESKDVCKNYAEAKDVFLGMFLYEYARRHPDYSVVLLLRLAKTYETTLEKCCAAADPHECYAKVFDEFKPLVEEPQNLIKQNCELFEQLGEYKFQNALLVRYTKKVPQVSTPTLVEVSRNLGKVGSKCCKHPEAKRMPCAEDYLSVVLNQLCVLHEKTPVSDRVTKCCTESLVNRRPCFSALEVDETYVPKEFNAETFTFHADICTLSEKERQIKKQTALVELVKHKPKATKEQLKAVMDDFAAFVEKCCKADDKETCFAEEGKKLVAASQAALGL

Take `c1cnc(N2c3ccncc3Sc3ncccc32)nc1` [10-Pyr-3,6-DAPT, 10-(2′-pyrimidyl)-3,6-diazaphenothiazine]: the pKd is 4.72.
